Data: patent US5770410A, “Chiral synthesis with modified enzymes” (Genzyme Corporation, priority 1992, dated 1998)

How the values were obtained:
Format in all cases: biochemical
[1] = target: T1, Bacillus stearothermophilus lactate dehydrogenase loop exchange mutant SL1 (short loop) (Geobacillus stearothermophilus, UniProt P00344, A222G/A223G/C81T, form not given); experiment: Steady-state kinetics, NADH-dependent reduction of 2-oxo acids (A340); conditions: 25° C., pH 6
T1 construct: purified; +/- FBP
T1 sequence (P00344 whole entry C81T/A222G/A223G, form open): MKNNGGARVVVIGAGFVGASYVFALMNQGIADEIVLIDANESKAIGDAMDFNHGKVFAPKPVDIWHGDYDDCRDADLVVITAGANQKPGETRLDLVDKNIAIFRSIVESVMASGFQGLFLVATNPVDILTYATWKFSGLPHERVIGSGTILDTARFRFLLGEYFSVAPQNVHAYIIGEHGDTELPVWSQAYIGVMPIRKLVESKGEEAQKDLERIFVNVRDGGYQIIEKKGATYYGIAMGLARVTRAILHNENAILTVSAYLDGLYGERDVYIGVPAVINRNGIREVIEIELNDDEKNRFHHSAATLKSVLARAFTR
Experimental: (§1) Each pair of overlapping oligonucleotides (20 μM of each) were subjected to 30 cycles of annealing and extension (94° C. for 1 minute, cool to 45° C. for 2 minutes, 45° C. for 1 minute, heat to 72° C. in 1 minute, 72° C. for 1 minute in 50 μl containing 0.05M KCl , 10 mM Tris pH 8.3, 1.5 mM MgCl2, 0.01% gelatin), 200 μM of each dNTP and 2.5 units TAQ DNA polymerase). The double-stranded DNA product was purified and then cut with SacII and XbaI before ligating it into the plasmid pLDHrs cut with the same enzymes. The ligated products were restricted with MluI to cleave wild-type plasmid pLDHrs.
(§2) Overnight cultures (11) were centrifuged and the packed cells were resuspended in 50 mM triethanolamine, pH 6.0. The cells were sonicated and the debris was removed by centrifugation. The protein in the supernatant was precipitated by the addition of 65% ammonium sulphate. The precipitate was spun down and resuspended in 50 mM triethanolamine, pH 6.0 and dialysed against the same buffer. After dialysis, NADH and FBP were added to the protein to final concentrations of 5 mM and 10 mM before loading onto an oxamate Sepharose column which had been pre-equilibrated with 50 mM triethanoloamine, pH 6.0, 3 mM NADH and 5 mM FBP. After washing off unbound protein with column buffer mutant LDH was eluted with 50 mM triethanolamine, pH 9.0, 0.3 M NaCl. The elutant was precipitated with 65% ammonium sulphate and then resuspended in and dialysed against 50 mM triethanolamine, pH 7.5. The protein was then loaded onto a Q-Sepharose Fast Flow column and eluted with a salt gradient. LDH eluted at a concentration of 0.25M NaCl. For the double glycine mutant enzyme, the first chromatography procedure with oxamate Sepharose was replaced by chromatography on Blue Sepharose -F3GA, otherwise the procedure was essentially the same. All proteins were judged to be greater than 98% pure from the intensity of Coomassie blue staining on an SDS Phast gel (Pharmacia). The yield of protein was usually 0.2 g/l of original broth.
(§3) Steady-state measurements were made by following the reduction in absorbance at 340 nm in the NADH/NAD^+ conversion. All assays were at 25° C. in the buffer Bis-Tris, pH 6, (20 mM), containing KC1 (50 mM) and when used fructose-1,6-bisphosphate at 5 mM. Protein concentration was determined from the absorbance at 280 nm using the value of 0.91 for 1 mg/ml protein in 1 cm path and an Mr of 33,000.
(§4) The specific substrates used in the evaluations are shown in the left column of Table 4. In Table 4, "235/6GG" denotes the mutant enzyme formed by substituting GlyGly for AlaAla at the 235-236 positions of the enzyme (Wilks et al., Biochemistry 1990, 29, 8587-8591), and "WTrs" denotes a mutant derived from the wild-type strain as shown in FIG. 1 of Wilks et al., Biochemistry 1992, 31, 7802-7806.

[2] = target: T2, Bacillus stearothermophilus lactate dehydrogenase loop exchange mutant SL2 (short loop) (Geobacillus stearothermophilus, UniProt P00344, A222G/A223G/C81T, form not given); experiment: as above; conditions: 25° C., pH 6
T2 construct: purified; +/- FBP
T2 sequence (P00344 whole entry C81T/A222G/A223G, form open): as above
Experimental: as §1, §2, §3, §4

[3] = system: Bacillus stearothermophilus lactate dehydrogenase loop exchange mutant BIG LOOP (loop SEQ ID No: 10); experiment: as above; conditions: 25° C., pH 6
Experimental: as §1, §2, §3, §4

[4] = target: T3, Bacillus stearothermophilus lactate dehydrogenase, wild type, SEQ ID NO: 3 (Geobacillus stearothermophilus, UniProt P00344); experiment: as above; conditions: estimate, steady state kinetic measurements
T3 construct: made in house; host or cells: E. coli
T3 sequence (P00344 whole entry): as the sequence (P00344 whole entry C81T/A222G/A223G, form open) above, with T81C, G222A, G223A counted along it
Experimental: as §2, with “For the double glycine mutant enzyme, the first chromatography procedure with oxamate Sepharose was replaced by chromatography on Blue Sepharose -F3GA, otherwise the procedure was essentially the same. All proteins were judged to be greater than 98% pure from the intensity of Coomassie blue staining on an SDS Phast gel (Pharmacia). The yield of protein was usually 0.2 g/l of original broth.” left out
Steady-state measurements were made by following the reduction in absorbance at 340 nm in the NADH/NAD^+ conversion. […] Protein concentration was determined from the absorbance at 280 nm using the value of 0.91 for 1 mg/ml protein in 1 cm path and an Mr of 33,000. […]

[5] = target: T4, Bacillus stearothermophilus lactate dehydrogenase mutant MVS/GG (MetValSer for GlnLysPro at 102-105, GlyGly for AlaAla at 235-236) (Geobacillus stearothermophilus, UniProt P00344, A222G/A223G/K87V/P88S/Q86M); experiment: Steady state kinetic measurements, reduction of 4-methyl-2-oxo-3-pentenoic acid
T4 construct: made in house; host or cells: E. coli
T4 sequence (P00344 whole entry Q86M/K87V/P88S/A222G/A223G): as the sequence (P00344 whole entry C81T/A222G/A223G, form open) above, with T81C, Q86M, K87V, P88S counted along it
Experimental: The mutation where alanines at 235,236 are replaced by glycines has been combined with three mutations in the mobile polypeptide loop (residues 98-112), namely […] by methionine, lysine 103 by valine and proline 105 by serine (MVS/GG).
as §3
Reduction of 4-methyl-2-oxo-3-pentenoic acid using MVS/GG (the mutant enzyme formed by substituting MetValSer for GlnLysPro at the 102-105 positions and GlyGly for AlaAla at the 235-236 positions): […]

O=C(O)C(=O)CCc1ccccc1 [2-OXO-4-PHENYL BUTANOATE, 2-oxo-4-phenyl butanoic acid]
Km ([1]; +FBP (5 mM)): 4 mM
kcat ([1]; +FBP (5 mM)): 0.03 s⁻¹
kcat /KM ([1]; +FBP (5 mM)): 7.5 M⁻¹ s⁻¹
Km ([1]; -FBP): 4 mM
kcat ([1]; -FBP): 0.002 s⁻¹
Km ([2]; +FBP (5 mM)): 4 mM
kcat ([2]; +FBP (5 mM)): 0.2 s⁻¹
kcat /KM ([2]; +FBP (5 mM)): 50 M⁻¹ s⁻¹
Km ([2]; -FBP): 4 mM
kcat ([2]; -FBP): 0.01 s⁻¹
kcat /KM ([2]; -FBP): 2.5 M⁻¹ s⁻¹
Km ([3]; +FBP (5 mM)): 7 mM
kcat ([3]; +FBP (5 mM)): 1.0 s⁻¹
kcat /KM ([3]; +FBP (5 mM)): 143 M⁻¹ s⁻¹
Km ([3]; -FBP): 12 mM
kcat ([3]; -FBP): 0.1 s⁻¹

CC(C)=CC(=O)C(=O)O [4-methyl-2-oxo-3-pentenoic acid]
turnover [4]: 0.03 S^-1
turnover [5]: 1.2 S^-1

CCCCC(=O)C(=O)O [KETO CAPROATE, α-ketocaproate]
Km ([1]; +FBP (5 mM)): 16 mM
Km ([1]; -FBP): 20 mM
Km ([2]; +FBP (5 mM)): 25 mM
Km ([2]; -FBP): 60 mM

CC(C)CC(=O)C(=O)O [KETOISO CAPROATE, α-ketoisocaproate]
Km ([1]; +FBP (5 mM)): 20 mM
Km ([1]; -FBP): 40 mM
Km ([2]; +FBP (5 mM)): 25 mM
Km ([2]; -FBP): 30 mM

CC(=O)C(=O)O [PYRUVATE, pyruvate]
Km ([1]; +FBP (5 mM)): 0.08 mM
Km ([2]; +FBP (5 mM)): 0.065 mM
Km ([2]; -FBP): 0.5 mM
